In the NIST ThermoML archive (doi:10.1016/j.fluid.2015.09.010):

Experiment: xn = mol fraction of the nth substance listed
Details: Gas, single sinker densimeter

F/C=C/C(F)(F)F [trans-1,3,3,3-tetrafluoropropene] + CCC
Details	mass density [kg/m3]
258.15 K, 100.61 kPa, x1 = 0.3426	3.2856
258.15 K, 196.38 kPa, x1 = 0.168	5.3883
258.15 K, 283.13 kPa, x1 = 0.168	7.9775
258.16 K, 100.07 kPa, x1 = 0.168	2.6751
258.16 K, 161.36 kPa, x1 = 0.3426	5.3604
258.18 K, 242.52 kPa, x1 = 0.3426	8.2589
263.19 K, 101.37 kPa, x1 = 0.3426	3.2412
263.19 K, 283.01 kPa, x1 = 0.3426	9.5248
263.2 K, 100.13 kPa, x1 = 0.168	2.6195
263.2 K, 200.66 kPa, x1 = 0.3426	6.5891
263.2 K, 209.39 kPa, x1 = 0.168	5.6353
263.2 K, 326.36 kPa, x1 = 0.168	9.0877
263.21 K, 228.28 kPa, x1 = 0.5076	8.8723
263.22 K, 100.69 kPa, x1 = 0.5076	3.7656
263.22 K, 168.02 kPa, x1 = 0.5076	6.4065
268.16 K, 332.61 kPa, x1 = 0.3431	11.1032
268.16 K, 332.62 kPa, x1 = 0.3431	11.1044
268.17 K, 101.25 kPa, x1 = 0.168	2.5987
268.17 K, 101.55 kPa, x1 = 0.679	4.2921
268.17 K, 164.37 kPa, x1 = 0.679	7.0737
268.17 K, 201.77 kPa, x1 = 0.3431	6.4883
268.17 K, 227.73 kPa, x1 = 0.679	9.9973
268.18 K, 202.12 kPa, x1 = 0.5076	7.6182
268.18 K, 248.05 kPa, x1 = 0.168	6.5968
268.18 K, 396.76 kPa, x1 = 0.168	11.0064
268.19 K, 101.5 kPa, x1 = 0.3431	3.1825
268.19 K, 104.3 kPa, x1 = 0.5076	3.83
268.2 K, 297.38 kPa, x1 = 0.5076	11.5325
273.16 K, 335.7 kPa, x1 = 0.168	8.9351
273.16 K, 451.06 kPa, x1 = 0.168	12.3973
273.17 K, 100.67 kPa, x1 = 0.3426	3.0918
273.17 K, 101.01 kPa, x1 = 0.168	2.541
273.17 K, 239.94 kPa, x1 = 0.3426	7.62
273.18 K, 102.27 kPa, x1 = 0.5076	3.6758
273.18 K, 200.45 kPa, x1 = 0.5076	7.3826
273.18 K, 209.57 kPa, x1 = 0.168	5.4023
273.18 K, 354.79 kPa, x1 = 0.5076	13.6621
273.18 K, 373.24 kPa, x1 = 0.3426	12.2939
273.18 K, 413.03 kPa, x1 = 0.3426	13.7671
273.2 K, 100.65 kPa, x1 = 0.679	4.1755
273.2 K, 206.18 kPa, x1 = 0.679	8.804
273.21 K, 292.51 kPa, x1 = 0.679	12.8266
278.16 K, 417.17 kPa, x1 = 0.3431	13.5784
278.17 K, 309.55 kPa, x1 = 0.3431	9.7917
278.18 K, 526.01 kPa, x1 = 0.168	14.3898
278.19 K, 99.65 kPa, x1 = 0.5076	3.5099
278.19 K, 100.62 kPa, x1 = 0.3431	3.0318
278.19 K, 101.41 kPa, x1 = 0.168	2.5025
278.19 K, 191.78 kPa, x1 = 0.5076	6.9037
278.19 K, 198.9 kPa, x1 = 0.3431	6.1248
278.19 K, 207 kPa, x1 = 0.168	5.2225
278.19 K, 297.09 kPa, x1 = 0.5076	10.9954
278.19 K, 309.62 kPa, x1 = 0.168	7.9983
278.19 K, 399.16 kPa, x1 = 0.5076	15.2118
278.19 K, 401.11 kPa, x1 = 0.168	10.6025
278.2 K, 223.87 kPa, x1 = 0.679	9.3941
278.21 K, 100.47 kPa, x1 = 0.679	4.0836
278.21 K, 100.48 kPa, x1 = 0.8949	4.7788
278.21 K, 170.26 kPa, x1 = 0.8949	8.2642
278.21 K, 223.89 kPa, x1 = 0.679	9.3939
278.21 K, 278.18 kPa, x1 = 0.8949	13.9927
278.22 K, 349.38 kPa, x1 = 0.679	15.2188
283.16 K, 205.37 kPa, x1 = 0.3426	6.1995
283.16 K, 338.25 kPa, x1 = 0.3426	10.53
283.17 K, 101.18 kPa, x1 = 0.3426	2.9879
283.17 K, 449.59 kPa, x1 = 0.3426	14.3925
283.18 K, 580.09 kPa, x1 = 0.3426	19.2575
283.19 K, 100.44 kPa, x1 = 0.168	2.4312
283.19 K, 198.03 kPa, x1 = 0.168	4.884
283.19 K, 220.83 kPa, x1 = 0.5076	7.8406
283.19 K, 312.57 kPa, x1 = 0.168	7.9025
283.19 K, 369.65 kPa, x1 = 0.5076	13.6268
283.19 K, 411.95 kPa, x1 = 0.168	10.6601
283.19 K, 498.32 kPa, x1 = 0.5076	19.0511
283.19 K, 515.38 kPa, x1 = 0.168	13.6875
283.19 K, 612.31 kPa, x1 = 0.168	16.7013
283.2 K, 100.73 kPa, x1 = 0.679	4.0148
283.2 K, 101.73 kPa, x1 = 0.5076	3.5184
283.2 K, 202.42 kPa, x1 = 0.679	8.2655
283.2 K, 307.97 kPa, x1 = 0.679	12.9389
283.21 K, 409.61 kPa, x1 = 0.679	17.7339
283.23 K, 209.78 kPa, x1 = 0.8949	10.0762
283.23 K, 328.84 kPa, x1 = 0.8949	16.4078
283.24 K, 102.25 kPa, x1 = 0.8949	4.7652
288.24 K, 101.08 kPa, x1 = 0.3426	2.9277
288.24 K, 229.6 kPa, x1 = 0.3426	6.8193
288.25 K, 344.87 kPa, x1 = 0.3426	10.4999
288.25 K, 452.7 kPa, x1 = 0.3426	14.1363
288.25 K, 583.57 kPa, x1 = 0.3426	18.8469
288.25 K, 689.73 kPa, x1 = 0.3426	22.9563
288.26 K, 595.72 kPa, x1 = 0.168	15.7412
288.26 K, 711.04 kPa, x1 = 0.168	19.385
288.27 K, 213.38 kPa, x1 = 0.168	5.1751
288.27 K, 334.82 kPa, x1 = 0.168	8.3244
288.27 K, 445.46 kPa, x1 = 0.168	11.3478
288.28 K, 101.56 kPa, x1 = 0.168	2.4124
288.29 K, 101.07 kPa, x1 = 0.5076	3.4268
288.29 K, 220.99 kPa, x1 = 0.5076	7.6809
288.29 K, 444.05 kPa, x1 = 0.5076	16.2865
288.29 K, 578.73 kPa, x1 = 0.5076	22.0366
288.3 K, 101.4 kPa, x1 = 0.679	3.9663
288.3 K, 227.2 kPa, x1 = 0.679	9.1436
288.3 K, 333.95 kPa, x1 = 0.5076	11.9154
288.31 K, 348.56 kPa, x1 = 0.679	14.4714
288.31 K, 484.09 kPa, x1 = 0.679	20.8941
288.32 K, 385.31 kPa, x1 = 0.8949	19.104
288.34 K, 101.12 kPa, x1 = 0.8949	4.6234
288.34 K, 236.83 kPa, x1 = 0.8949	11.2187
293.25 K, 588.13 kPa, x1 = 0.3426	18.534
293.25 K, 709.61 kPa, x1 = 0.3426	23.0845
293.26 K, 208.73 kPa, x1 = 0.3426	6.0545
293.26 K, 452.62 kPa, x1 = 0.3426	13.8135
293.27 K, 101.3 kPa, x1 = 0.3426	2.8816
293.27 K, 329.2 kPa, x1 = 0.3426	9.782
293.28 K, 208.37 kPa, x1 = 0.5076	7.0836
293.28 K, 290.55 kPa, x1 = 0.168	7.0037
293.28 K, 407.44 kPa, x1 = 0.168	10.0558
293.29 K, 98.9 kPa, x1 = 0.5076	3.2914
293.29 K, 100.13 kPa, x1 = 0.168	2.3324
293.29 K, 198.29 kPa, x1 = 0.168	4.6983
293.29 K, 317.13 kPa, x1 = 0.5076	11.031
293.29 K, 429.96 kPa, x1 = 0.5076	15.3484
293.29 K, 515.52 kPa, x1 = 0.168	13.0247
293.29 K, 530.45 kPa, x1 = 0.5076	19.4174
293.29 K, 612.66 kPa, x1 = 0.168	15.8319
293.29 K, 715.58 kPa, x1 = 0.168	18.9724
293.29 K, 825.52 kPa, x1 = 0.168	22.5539
293.3 K, 210.11 kPa, x1 = 0.679	8.2494
293.3 K, 641.29 kPa, x1 = 0.5076	24.1912
293.31 K, 101.19 kPa, x1 = 0.679	3.8833
293.31 K, 324.6 kPa, x1 = 0.679	13.0914
293.32 K, 432.86 kPa, x1 = 0.679	17.9448
293.32 K, 546.41 kPa, x1 = 0.679	23.3906
293.34 K, 454.67 kPa, x1 = 0.8949	22.4737
293.35 K, 100.25 kPa, x1 = 0.8949	4.4951
293.35 K, 226.08 kPa, x1 = 0.8949	10.452
293.35 K, 345.6 kPa, x1 = 0.8949	16.5159
